Reference: doi:10.1101/2020.10.22.350827v1 (biorxiv, 2020)
Numbering of substitutions follows the chain as printed. pKi: −log10 of the molar value.

What was measured:
[1] = target: T1, Nluc-A1R (adenosine A1 receptor) (Homo sapiens, UniProt P30542, L253A); assay: NanoBRET competition binding, live HEK […] cells; type: cell-based
T1 sequence (P30542 1-326 L253A): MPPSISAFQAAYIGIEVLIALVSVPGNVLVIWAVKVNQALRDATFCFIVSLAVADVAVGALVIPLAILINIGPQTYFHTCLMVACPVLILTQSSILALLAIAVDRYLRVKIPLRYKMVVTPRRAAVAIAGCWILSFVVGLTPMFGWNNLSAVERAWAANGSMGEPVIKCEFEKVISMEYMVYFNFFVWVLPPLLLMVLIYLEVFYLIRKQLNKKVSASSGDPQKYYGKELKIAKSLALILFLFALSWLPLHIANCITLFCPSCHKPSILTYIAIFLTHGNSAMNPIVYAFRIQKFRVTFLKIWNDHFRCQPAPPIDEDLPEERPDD

[2] = target: T2, Nluc-A1R (adenosine A1 receptor) (Homo sapiens, UniProt P30542, I69A); assay: NanoBRET competition binding, live HEK […] cells; type: cell-based
T2 sequence (P30542 1-326 I69A): T1 sequence (P30542 1-326 L253A) with I69A, A253L

[3] = target: T3, Nluc-A1R (adenosine A1 receptor) (Homo sapiens, UniProt P30542, Y271A); assay: NanoBRET competition binding, live HEK […] cells; type: cell-based
T3 sequence (P30542 1-326 Y271A): T1 sequence (P30542 1-326 L253A) with A253L, Y271A

[4] = target: T4, Nluc-A1R (adenosine A1 receptor) L258A (Homo sapiens, UniProt P30542, L258A); assay: cell-based; parameters: species or system HEK 293
T4 sequence (P30542 1-326 L258A): T1 sequence (P30542 1-326 L253A) with A253L, L258A

[5] = target: T5, Nluc-A1R (adenosine A1 receptor) Y12A (Homo sapiens, UniProt P30542, Y12A); assay: cell-based; parameters: species or system HEK 293
T5 sequence (P30542 1-326 Y12A): T1 sequence (P30542 1-326 L253A) with Y12A, A253L

[6] = target: T6, Nluc-A1R (adenosine A1 receptor) K265A (Homo sapiens, UniProt P30542, K265A); assay: cell-based; parameters: species or system HEK 293
T6 sequence (P30542 1-326 K265A): T1 sequence (P30542 1-326 L253A) with A253L, K265A

[7] = target: T7, Nluc-A1R (adenosine A1 receptor) L253T (Homo sapiens, UniProt P30542, L253T); assay: cell-based; parameters: species or system HEK 293
T7 sequence (P30542 1-326 L253T): T1 sequence (P30542 1-326 L253A) with A253T

SMILES: OC[C@H]1O[C@@H](n2cnc3c(N[C@@H]4CCC[C@H]4O)ncnc32)[C@H](O)[C@@H]1O [compound 6, HOCPA]
- pKi [1]: 5.49
- pKi [2]: 4.34
- pKi [3]: 5.15
- pKi [4]: 5.85
- pKi [5]: 5.78
- pKi [6]: 6.01
- pKi [7]: 5.69
